Reference: US8685935B2, “Use of flavonoids to increase the bioavailability of hesperetin” (Nestec S.A., priority 2009, dated 2014)

Tested on: Caco-2 cell monolayers
Assay: Caco-2 cell monolayer Transwell model: formation and transport of hesperetin and its conjugates
Format: in vitro ADME
Settings: 120 minutes upon exposure to 10 μM (5 nmol) hesperetin added to the apical compartment
Experimental: Caco-2 cell monolayers were grown on permeable filters that divide a two-compartment cell culture system. Although originally derived from a colonic adenoma carcinoma, differentiating Caco-2 cells are known to display morphological and biochemical properties of intestinal enterocytes including the formation of a polarized layer with expression of ABC transport proteins including Pgp, MRP1, MRP2 and BCRP and metabolizing enzymes.
Using the Caco-2 cell monolayer Transwell model in which the cells in the apical compartment were exposed to hesperetin, or combinations of hesperetin and other flavonoids, we studied the formation and transport of intestinal hesperetin conjugates, which were formed by the Caco-2 cells. 120 minutes upon exposure to 10 μM (5 nmol) hesperetin added to the apical compartment. […] These metabolites were identified as hesperetin 7-O-glucuronide and hesperetin 7-O-sulfate.

| Structure (SMILES) | amount of metabolite in apical compartment compared to basolateral |
| --- | --- |
| COc1ccc([C@@H]2CC(=O)c3c(O)cc(OS(=O)(=O)O)cc3O2)cc1O [hesperetin 7-O-sulfate] | detected at much higher amounts in the apical compartment compared to the basolateral |
| COc1ccc([C@@H]2CC(=O)c3c(O)cc(O[C@@H]4O[C@H](C(=O)O)[C@@H](O)[C@H](O)[C@H]4O)cc3O2)cc1O [hesperetin 7-O-glucuronide] | detected at much higher amounts in the apical compartment compared to the basolateral |
